*1 amine or outer side, *2 acyl side, *3 side chain or, on linkers, in order; H or OH if unused. Where a SMILES comes first, the peptide text is derived from it. Side-chain parts run from the residue outwards. [ ]: non-standard residue; d: D form. The star is where a group is joined. X1 = O=C(CCCCCCCCCCCCCCCc1nnn[nH]1)NS(=O)(=O)CCCC(=O)*; C18 diacid = O=C(O)CCCCCCCCCCCCCCCCC(=O)*; C16 diacid = O=C(O)CCCCCCCCCCCCCCC(=O)*; γGlu = O=C(O)[C@H](CCC(=O)[*:2])N[*:1]; Desaminohistidyl = O=C(CCc1c[nH]cn1)*; AEEA = NCCOCCOCC(=O)O; Aib = CC(C)(N)C(=O)O; GABA = NCCCC(=O)O

For the first data set, the target named is human serum albumin (HSA) (Homo sapiens, UniProt P02768). The data set is described as follows: Albumin binding affinity, competition scintillation proximity assay (SPA).
human serum albumin (HSA), sequence (P02768 25-609): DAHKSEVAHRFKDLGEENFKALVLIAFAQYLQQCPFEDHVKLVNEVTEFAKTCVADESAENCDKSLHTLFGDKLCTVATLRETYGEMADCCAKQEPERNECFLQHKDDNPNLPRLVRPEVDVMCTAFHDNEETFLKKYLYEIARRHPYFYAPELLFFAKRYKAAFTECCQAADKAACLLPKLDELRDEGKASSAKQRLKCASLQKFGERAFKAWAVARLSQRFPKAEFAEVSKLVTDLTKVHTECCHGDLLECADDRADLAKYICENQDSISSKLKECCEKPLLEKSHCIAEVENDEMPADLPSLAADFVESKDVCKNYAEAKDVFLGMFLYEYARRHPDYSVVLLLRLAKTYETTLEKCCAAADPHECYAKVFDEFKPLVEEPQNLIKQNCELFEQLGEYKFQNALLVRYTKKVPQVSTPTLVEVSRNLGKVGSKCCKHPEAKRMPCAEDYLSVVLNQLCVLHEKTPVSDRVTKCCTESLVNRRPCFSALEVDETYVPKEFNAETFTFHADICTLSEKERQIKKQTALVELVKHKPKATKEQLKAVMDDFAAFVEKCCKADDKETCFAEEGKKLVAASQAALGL
Conditions: not given
In general terms: Scintillation proximity formats need no separation of bound from free tracer.
For the molecule `CC[C@H](C)[C@H](NC(=O)[C@H](Cc1ccccc1)NC(=O)[C@H](CCC(=O)O)NC(=O)[C@H](CCCNC(=N)N)NC(=O)[C@H](C)NC(=O)[C@H](C)NC(=O)[C@H](CCC(N)=O)NC(=O)[C@H](CCC(=O)O)NC(=O)[C@H](CCC(=O)O)NC(=O)[C@H](CC(C)C)NC(=O)[C@H](Cc1ccc(O)cc1)NC(=O)[C@H](CO)NC(=O)[C@H](CO)NC(=O)[C@@H](NC(=O)[C@H](CC(=O)O)NC(=O)[C@H](CO)NC(=O)[C@@H](NC(=O)[C@H](Cc1ccccc1)NC(=O)[C@@H](NC(=O)CNC(=O)[C@H](CCC(=O)O)NC(=O)[C@H](C)NC(=O)CCc1c[nH]cn1)[C@@H](C)O)[C@@H](C)O)C(C)C)C(=O)N[C@@H](CCC(=O)O)C(=O)N[C@@H](Cc1c[nH]c2ccccc12)C(=O)N[C@@H](CC(C)C)C(=O)N[C@H](C(=O)N[C@@H](CCCNC(=N)N)C(=O)NCC(=O)N[C@@H](CCCCNC(=O)COCCOCCNC(=O)COCCOCCNC(=O)CC[C@H](NC(=O)CCCCCCCCCCCCCCC(=O)O)C(=O)O)C(=O)NCC(=O)N[C@@H](CCC(=O)O)C(=O)N[C@@H](CCCCN)C(=O)O)C(C)C` [Example 30, N-epsilon36-[2-(2-{2-[2-(2-{2-[(S)-4-carboxy-4-(15-carboxy-pentadecanoylamino)-butyrylamino]-ethoxy}-ethoxy)-acetylamino]-ethoxy}-ethoxy)-acetyl] [desaminoHis7, Glu22, Arg26, Glu30, Arg34, Lys36]GLP-1-(7-37)-Glu-Lys peptide] (Desaminohistidyl-AEGTFTSDVSSYLEEQAAREFIEWLVRGK([AEEA-AEEA-γGlu-C16 diacid])GEK-OH), the EC50 (usually the concentration at which the effect is half-maximal) was more than 2000 nM. Molecule `CC[C@H](C)[C@H](NC(=O)[C@H](Cc1ccccc1)NC(=O)[C@H](CCC(=O)O)NC(=O)[C@H](CCCNC(=N)N)NC(=O)[C@H](C)NC(=O)[C@H](C)NC(=O)[C@H](CCC(N)=O)NC(=O)[C@H](CCC(=O)O)NC(=O)[C@H](CCC(=O)O)NC(=O)[C@H](CC(C)C)NC(=O)[C@H](Cc1ccc(O)cc1)NC(=O)[C@H](CO)NC(=O)[C@H](CO)NC(=O)[C@@H](NC(=O)[C@H](CC(=O)O)NC(=O)[C@H](CO)NC(=O)[C@@H](NC(=O)[C@H](Cc1ccccc1)NC(=O)[C@@H](NC(=O)CNC(=O)[C@H](CCC(=O)O)NC(=O)C(C)(C)NC(=O)[C@@H](N)Cc1c[nH]cn1)[C@@H](C)O)[C@@H](C)O)C(C)C)C(=O)N[C@@H](C)C(=O)N[C@@H](Cc1c[nH]c2ccccc12)C(=O)N[C@@H](CC(C)C)C(=O)N[C@H](C(=O)N[C@@H](CCCNC(=N)N)C(=O)NC(C)(C)C(=O)N[C@@H](CCCNC(=N)N)C(=O)N[C@@H](CCCCNC(=O)COCCOCCNC(=O)COCCOCCNC(=O)CC[C@H](NC(=O)CCCCCCCCCCCCCCCCC(=O)O)C(=O)O)C(=O)O)C(C)C` [Example 33, N-epsilon37-[2-(2-{2-[2-(2-{2-[(S)-4-carboxy-4-(17-carboxy-heptadecanoylamino)-butyrylamino]-ethoxy}-ethoxy)-acetylamino]-ethoxy}-ethoxy)-acetyl]-[Aib8,Glu22, Arg26,Arg34, Aib35, Lys37]GLP-1-(7-37)] (H-H[Aib]EGTFTSDVSSYLEEQAAREFIAWLVR[Aib]RK([AEEA-AEEA-γGlu-C18 diacid])-OH) showed a concentration for a half-maximal effect (EC50) of 100 to 150 nM. Same read-out and setting: with `CC[C@H](C)[C@H](NC(=O)[C@H](Cc1cccc(C(F)(F)F)c1)NC(=O)[C@H](CCC(=O)O)NC(=O)[C@H](CCCNC(=N)N)NC(=O)[C@H](C)NC(=O)[C@H](C)NC(=O)[C@H](CCC(N)=O)NC(=O)[C@H](CCC(=O)O)NC(=O)[C@H](CCC(=O)O)NC(=O)[C@H](CC(C)C)NC(=O)[C@H](Cc1ccc(O)cc1)NC(=O)[C@H](CO)NC(=O)[C@H](CO)NC(=O)[C@@H](NC(=O)[C@H](CC(=O)O)NC(=O)[C@H](CO)NC(=O)[C@@H](NC(=O)[C@H](Cc1ccccc1)NC(=O)[C@@H](NC(=O)CNC(=O)[C@H](CCC(=O)O)NC(=O)[C@H](C)NC(=O)CCc1c[nH]cn1)[C@@H](C)O)[C@@H](C)O)C(C)C)C(=O)N[C@@H](C)C(=O)N[C@@H](Cc1c[nH]c2ccccc12)C(=O)N[C@@H](CC(C)C)C(=O)N[C@H](C(=O)N[C@@H](CCCNC(=N)N)C(=O)NCC(=O)N[C@@H](CCCNC(=N)N)C(=O)N[C@@H](CCCCNC(=O)COCCOCCNC(=O)COCCOCCNC(=O)C[C@@H](NC(=O)C1CCN(C(=O)CCCCCCCCCCCCCCCCC(=O)O)CC1)C(=O)O)C(N)=O)C(C)C` [Example 3, N-epsilon37-[2-(2-[2-(2-[2-(2-((R)-3-[1-(17-Carboxyheptadecanoyl)piperidin-4-ylcarbonylamino]3-carboxypropionylamino)ethoxy)ethoxy]acetylamino)ethoxy]ethoxy)acetyl][DesaminoHis 7,Glu22,Arg26,Arg34,Phe(m-CF3)28]GLP-1-(7-37)amide] the figure was 1500 to 2000 nM; with `CC[C@H](C)[C@H](NC(=O)[C@H](Cc1ccccc1)NC(=O)[C@H](CCC(=O)O)NC(=O)[C@H](CCCNC(=N)N)NC(=O)[C@H](C)NC(=O)[C@H](C)NC(=O)[C@H](CCC(N)=O)NC(=O)[C@H](CCC(=O)O)NC(=O)[C@H](CCC(=O)O)NC(=O)[C@H](CC(C)C)NC(=O)[C@H](Cc1ccc(O)cc1)NC(=O)[C@H](CO)NC(=O)[C@H](CO)NC(=O)[C@@H](NC(=O)[C@H](CC(=O)O)NC(=O)[C@H](CO)NC(=O)[C@@H](NC(=O)[C@H](Cc1ccccc1)NC(=O)[C@@H](NC(=O)CNC(=O)[C@H](CCC(=O)O)NC(=O)C(C)(C)NC(=O)[C@@H](N)Cc1c[nH]cn1)[C@@H](C)O)[C@@H](C)O)C(C)C)C(=O)N[C@@H](CCCCNC(=O)COCCOCCNC(=O)COCCOCCNC(=O)C[C@H](NC(=O)C1CCN(C(=O)CCCCCCCCCCCCCCCCCCC(=O)O)CC1)C(=O)O)C(=O)N[C@@H](Cc1c[nH]c2ccccc12)C(=O)N[C@@H](CC(C)C)C(=O)N[C@H](C(=O)N[C@@H](CCCCN)C(=O)NCC(=O)N[C@@H](CCCNC(=N)N)C(=O)NCC(=O)O)C(C)C` [Example 4, N-epsilon30{2-[2-(2-{2-[2-((S)-3-carboxy-3-{[1-(19-carboxynonadecanoyl)piperidine-4-carbonyl]amino}propionylamino)ethoxy]ethoxy}acetylamino)ethoxy]ethoxy}acetyl [Aib8,Glu22,Arg26,Lys30]GLP-1-(7-37)], 200 to 400 nM; with `CC[C@H](C)[C@H](NC(=O)[C@H](Cc1ccccc1)NC(=O)[C@H](CCC(=O)O)NC(=O)[C@H](CCCNC(=N)N)NC(=O)[C@@H](NC(=O)[C@H](C)NC(=O)[C@H](CCC(N)=O)NC(=O)[C@H](CCC(=O)O)NC(=O)[C@H](CCC(=O)O)NC(=O)[C@H](CC(C)C)NC(=O)[C@H](Cc1ccc(O)cc1)NC(=O)[C@H](CO)NC(=O)[C@H](CO)NC(=O)[C@@H](NC(=O)[C@H](CC(=O)O)NC(=O)[C@H](CO)NC(=O)[C@@H](NC(=O)[C@H](Cc1ccccc1)NC(=O)[C@@H](NC(=O)CNC(=O)[C@H](CCC(=O)O)NC(=O)C(C)(C)NC(=O)[C@@H](N)Cc1c[nH]cn1)[C@@H](C)O)[C@@H](C)O)C(C)C)C(C)C)C(=O)N[C@@H](C)C(=O)N[C@@H](CCCCNC(=O)COCCOCCNC(=O)COCCOCCNC(=O)CC[C@H](NC(=O)CCCCCCCCCCCCCCCCC(=O)O)C(=O)O)C(=O)N[C@@H](CC(C)C)C(=O)N[C@H](C(=O)N[C@@H](CCCCN)C(=O)N[C@@H](CCCCN)C(=O)N[C@@H](CCCCN)C(N)=O)C(C)C` [Example 36, N-epsilon31-[2-(2-{2-[2-(2-{2-[(S)-4-Carboxy-4-(17-carboxyheptadecanoylamino)butyrylamino]ethoxy}ethoxy)acetylamino]ethoxy}ethoxy)acetyl][Aib8,Glu22,Val25,Arg26,Lys31,Lys35,Lys36]GLP-1-(7-36) amide] (H-H[Aib]EGTFTSDVSSYLEEQAVREFIAK([AEEA-AEEA-γGlu-C18 diacid])LVKKK-NH2), 400 to 800 nM.

Staying with this data set, now noted: human, pH 7.4.
In the case of `CC[C@H](C)[C@H](NC(=O)[C@H](Cc1ccccc1)NC(=O)[C@H](CCC(=O)O)NC(=O)[C@H](CCCNC(=N)N)NC(=O)[C@H](C)NC(=O)[C@H](C)NC(=O)[C@H](CCC(N)=O)NC(=O)[C@H](CCC(=O)O)NC(=O)[C@H](CCC(=O)O)NC(=O)[C@H](CC(C)C)NC(=O)[C@H](Cc1ccc(O)cc1)NC(=O)[C@H](CO)NC(=O)[C@H](CO)NC(=O)[C@@H](NC(=O)[C@H](CC(=O)O)NC(=O)[C@H](CO)NC(=O)[C@@H](NC(=O)[C@H](Cc1ccccc1)NC(=O)[C@@H](NC(=O)CNC(=O)[C@H](CCC(=O)O)NC(=O)C(C)(C)NC(=O)[C@@H](N)Cc1c[nH]cn1)[C@@H](C)O)[C@@H](C)O)C(C)C)C(=O)N[C@@H](CCC(=O)O)C(=O)N[C@@H](Cc1c[nH]c2ccccc12)C(=O)N[C@@H](CC(C)C)C(=O)N[C@H](C(=O)N[C@@H](CCCCN)C(=O)NCC(=O)N[C@@H](CCCNC(=N)N)C(=O)N1CCC[C@H]1C(=O)N[C@@H](CCCCNC(=O)COCCOCCNC(=O)CC[C@H](NC(=O)CC[C@H](NC(=O)CCCNC(=O)CCCS(=O)(=O)NC(=O)CCCCCCCCCCCCCCCc1nnn[nH]1)C(=O)O)C(=O)O)C(=O)O)C(C)C` [Example 14, [Aib8,Glu22,Arg26,Glu30,Pro37]GLP-1-(7-37)Lys [2-(2-{2-[4-Carboxy-4-(4-carboxy-4-{4-[4-(16-1H-tetrazol-5-yl-hexadecanoylsulfamoyl)butyrylamino]butyrylamino}butyrylamino)butyrylamino]ethoxy}ethoxy)acetyl]] (H-H[Aib]EGTFTSDVSSYLEEQAAREFIEWLVKGRPK([AEEA-γGlu-γGlu-GABA-X1])-OH; N-terminus and C-terminus assumed), the half-maximal effective concentration (EC50) at 20 hours was 150 to 200 nM.

The values above are taken from patent US9409966B2, “Glucagon-like peptide-1 derivatives and their pharmaceutical use” (priority 2007, dated 2016).
